# Measurements: US6355799B1, “Substituted benzene compounds, process for their preparation, and herbicidal and defoliant compositions containing them” (ISK Americas Incorporated, priority 1997, dated 2002)
# How the values were obtained:
# Format in all cases: in vivo
# [1] = tested on: redroot pigweed (Amaranthus retroflexus, AMARE); experiment: Pre-emerge test, greenhouse herbicide activity screening; details: phytotoxicity rating 0-100, 14 days after application
# How it was run: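 Sandy loam pots; pre-emerge: sown 1 d pre-spray, surface-watered after, then bottom-watered. Post-emerge: sown 8–21 d before, 2–3 leaf stage, + 0.25% v/v NIS, bottom-watered. Acetone, 187 l/ha track spray, 15–1000 g ai/ha. 0–100 injury score, day 14.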
# [2] = tested on: barnyardgrass (Echinochloa crus-galli, ECHCG); experiment: as above; details: phytotoxicity rating 0-100, 14 days after application
# How it was run: (§1)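 Rating: 0–100 visual injury, 14 DAA. Application: acetone, 187 l/ha, 15–1000 g ai/ha, flat-fan track sprayer with nozzle 40–45 cm above soil or canopy. Post-emerge runs used 0.25% v/v surfactant on 2–3 leaf plants.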
# [3] = tested on: common ragweed (Ambrosia artemisizfolia L., AMBEL); experiment: as above; details: phytotoxicity rating 0-100, 14 days after application
# How it was run: as §1
# [4] = tested on: green foxtail (Setaria viridis, SETVI); experiment: as above; details: phytotoxicity rating 0-100, 14 days after application
# How it was run: as §1
# [5] = tested on: ivyleaf morningglory (Ipomoea hederacea, IPOHE); experiment: as above; details: phytotoxicity rating 0-100, 14 days after application
# How it was run: as §1
# [6] = tested on: johnsongrass (Sorghum halepense, SORHA); experiment: as above; details: phytotoxicity rating 0-100, 14 days after application
# How it was run: as §1
# [7] = tested on: lambsquarters (Chenopodium album, CHEAL); experiment: as above; details: phytotoxicity rating 0-100, 14 days after application
# How it was run: as §1
# [8] = tested on: large crabgrass (Digitaria sanguinalis, DIGSA); experiment: as above; details: phytotoxicity rating 0-100, 14 days after application
# How it was run: as §1
# [9] = tested on: sicklepod (Cassia obtusifolia, CASOB); experiment: as above; details: phytotoxicity rating 0-100, 14 days after application
# How it was run: as §1
# [10] = tested on: velvetleaf (Abutilon theophrasti, ABUTH); experiment: as above; details: phytotoxicity rating 0-100, 14 days after application
# How it was run: as §1
# [11] = tested on: field corn (Zea mays L., var. Dekalb 535, CORN); experiment: Pre-emerge test, crop safety; details: crop damage rating 0-100, 14 days after application
# How it was run: (§2)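 Fourteen days after spraying, crop and weed injury was graded visually from 0, no effect, to 100, every plant dead. Test substances were dissolved in acetone and applied at 15–1000 g ai/ha with a flat-fan nozzle. Application was either pre-emergence, one day after sowing, or post-emergence at the 2–3 leaf stage.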
# [12] = tested on: upland rice (Oryza sp., var. Tebonnet, RICE); experiment: Pre-emerge test, crop safety; details: crop damage rating 0-100, 14 days after application
# How it was run: as §2
# [13] = tested on: barnyardgrass (Echinochloa crus-galli, ECHCG); experiment: Post-emerge test, greenhouse herbicide activity screening; details: post-emerge, 14 days after application, rating scale 0-100
# How it was run: as §1
# [14] = tested on: green foxtail (Setaria viridis, SETVI); experiment: as above; details: post-emerge, 14 days after application, rating scale 0-100
# How it was run: as §1
# [15] = tested on: ivyleaf morningglory (Ipomoea hederacea, IPOHE); experiment: as above; details: post-emerge, 14 days after application, rating scale 0-100
# How it was run: as §1
# [16] = tested on: johnsongrass (Sorghum halepense, SORHA); experiment: as above; details: post-emerge, 14 days after application, rating scale 0-100
# How it was run: as §1
# [17] = tested on: lambsquarters (Chenopodium album, CHEAL); experiment: as above; details: post-emerge, 14 days after application, rating scale 0-100
# How it was run: as §1
# [18] = tested on: large crabgrass (Digitaria sanguinalis, DIGSA); experiment: as above; details: post-emerge, 14 days after application, rating scale 0-100
# How it was run: as §1
# [19] = tested on: redroot pigweed (Amaranthus retroflexus, AMARE); experiment: as above; details: post-emerge, 14 days after application
# How it was run: as §1
# [20] = tested on: sicklepod (Cassia obtusifolia, CASOB); experiment: as above; details: post-emerge, 14 days after application, rating scale 0-100
# How it was run: as §1
# [21] = tested on: velvetleaf (Abutilon theophrasti, ABUTH); experiment: as above; details: post-emerge, 14 days after application, rating scale 0-100
# How it was run: as §1
# [22] = tested on: field corn (Zea mays L., var. Dekalb 535, CORN); experiment: Post-emerge test, crop safety; details: post-emerge, 14 days after application, rating scale 0-100
# How it was run: (§3)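 Plants grown in 10 cm pots of sandy loam mix received acetone-dissolved compounds through a moving flat-fan nozzle. Doses ranged from 15 to 1000 g ai/ha. Pre-emerge pots were seeded one day earlier, post-emerge pots 8–21 days earlier. Fourteen days on, each pot was graded 0–100 for damage.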
# [23] = tested on: upland rice (Oryza sp., var. Tebonnet, RICE); experiment: Post-emerge test, crop safety; details: post-emerge, 14 days after application, rating scale 0-100
# How it was run: as §3
smiles,measurement,setting,value
CC(C)Oc1c(Cl)cc(F)c(-n2c(=O)cc(C(F)(F)F)n(C)c2=O)c1NC(=O)c1ccc2ccccc2c1 [2-197],Pre-emerge Herbicidal Activity AMARE,[1]; 63 g ai/ha,100
same,Pre-emerge Herbicidal Activity AMARE,[1]; 250 g ai/ha,100
same,Pre-emerge Herbicidal Activity ECHCG,[2]; 63 g ai/ha,0
same,Pre-emerge Herbicidal Activity ECHCG,[2]; 250 g ai/ha,50
same,Pre-emerge Herbicidal Activity AMBEL,[3]; 63 g ai/ha,100
same,Pre-emerge Herbicidal Activity AMBEL,[3]; 250 g ai/ha,100
same,Pre-emerge Herbicidal Activity SETVI,[4]; 63 g ai/ha,50
same,Pre-emerge Herbicidal Activity SETVI,[4]; 250 g ai/ha,100
same,Pre-emerge Herbicidal Activity IPOHE,[5]; 63 g ai/ha,30
same,Pre-emerge Herbicidal Activity IPOHE,[5]; 250 g ai/ha,50
same,Pre-emerge Herbicidal Activity SORHA,[6]; 63 g ai/ha,0
same,Pre-emerge Herbicidal Activity SORHA,[6]; 250 g ai/ha,20
same,Pre-emerge Herbicidal Activity CHEAL,[7]; 63 g ai/ha,100
same,Pre-emerge Herbicidal Activity CHEAL,[7]; 250 g ai/ha,100
same,Pre-emerge Herbicidal Activity DIGSA,[8]; 63 g ai/ha,80
same,Pre-emerge Herbicidal Activity DIGSA,[8]; 250 g ai/ha,100
same,Pre-emerge Herbicidal Activity CASOB,[9]; 63 g ai/ha,0
same,Pre-emerge Herbicidal Activity CASOB,[9]; 250 g ai/ha,50
same,Pre-emerge Herbicidal Activity ABUTH,[10]; 63 g ai/ha,90
same,Pre-emerge Herbicidal Activity ABUTH,[10]; 250 g ai/ha,100
same,Pre-emerge Herbicidal Activity CORN,[11]; 63 g ai/ha,0
same,Pre-emerge Herbicidal Activity CORN,[11]; 250 g ai/ha,0
same,Pre-emerge Herbicidal Activity RICE,[12]; 63 g ai/ha,30
same,Pre-emerge Herbicidal Activity RICE,[12]; 250 g ai/ha,80
same,phytotoxicity rating ECHCG,[13]; 63 g ai/ha,0
same,phytotoxicity rating ECHCG,[13]; 250 g ai/ha,20
same,phytotoxicity rating SETVI,[14]; 63 g ai/ha,10
same,phytotoxicity rating SETVI,[14]; 250 g ai/ha,20
same,phytotoxicity rating IPOHE,[15]; 63 g ai/ha,100
same,phytotoxicity rating IPOHE,[15]; 250 g ai/ha,90
same,phytotoxicity rating SORHA,[16]; 63 g ai/ha,0
same,phytotoxicity rating SORHA,[16]; 250 g ai/ha,50
same,phytotoxicity rating CHEAL,[17]; 63 g ai/ha,100
same,phytotoxicity rating CHEAL,[17]; 250 g ai/ha,100
same,phytotoxicity rating DIGSA,[18]; 63 g ai/ha,10
same,phytotoxicity rating DIGSA,[18]; 250 g ai/ha,10
same,phytotoxicity rating AMARE,"[19]; 63 g ai/ha, rating scale 0-100 (0 no damage, 100 complete death)",100
same,phytotoxicity rating AMARE,"[19]; 250 g ai/ha, rating scale 0-100",100
same,phytotoxicity rating CASOB,[20]; 63 g ai/ha,80
same,phytotoxicity rating CASOB,[20]; 250 g ai/ha,80
same,phytotoxicity rating ABUTH,[21]; 63 g ai/ha,100
same,phytotoxicity rating ABUTH,[21]; 250 g ai/ha,100
same,phytotoxicity rating CORN (crop damage),[22]; 63 g ai/ha,10
same,phytotoxicity rating CORN (crop damage),[22]; 250 g ai/ha,10
same,phytotoxicity rating RICE (crop damage),[23]; 63 g ai/ha,20
same,phytotoxicity rating RICE (crop damage),[23]; 250 g ai/ha,30
